Assays:
B1 bradykinin receptor [1] = target: T1, B1 bradykinin receptor (Homo sapiens, UniProt P46663); assay: Antagonist activity at human bradykinin B1 receptor expressed in CHO-D-/aequorin cells; format: functional, cell-based
T1 sequence (P46663 whole entry): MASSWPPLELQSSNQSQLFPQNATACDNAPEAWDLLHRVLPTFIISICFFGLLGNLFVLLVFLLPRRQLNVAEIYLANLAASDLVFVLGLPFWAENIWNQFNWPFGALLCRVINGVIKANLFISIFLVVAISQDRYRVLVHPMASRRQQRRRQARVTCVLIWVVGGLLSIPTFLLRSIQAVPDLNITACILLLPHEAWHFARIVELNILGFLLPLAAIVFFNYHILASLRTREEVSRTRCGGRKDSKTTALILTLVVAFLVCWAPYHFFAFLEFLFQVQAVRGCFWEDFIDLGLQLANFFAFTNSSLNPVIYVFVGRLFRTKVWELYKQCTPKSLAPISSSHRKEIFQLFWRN

[2] = Metabolic stability in human liver microsomes; format: ADME, Microsome; details: read-out: Stability
B1 bradykinin receptor [3] = target: T1, B1 bradykinin receptor; assay: Displacement of [3H]DAK from human bradykinin B1 receptor expressed in CHO-D-/aequorin cells by rapid filtration technique; format: cell-based

Work on `O=C(C[C@@H]1C(=O)Nc2ccccc2N1S(=O)(=O)c1ccc(Cl)c(Cl)c1)NCCc1ccc(C2=NCCN2)cc1` yielded an IC50 (B1 bradykinin receptor [1]) of 0.18 nM.
In the case of `CC(C)CNCc1ccc2c(c1)OCC[C@H]2NC(=O)C[C@@H]1C(=O)Nc2ccccc2N1S(=O)(=O)c1ccc(Cl)c(Cl)c1`, the microsomal CLint [2] is reported as 264 µL/min/mg.
Work on `Cc1ccc(S(=O)(=O)N2c3ccccc3NC(=O)[C@H]2CC(=O)N[C@@H]2CCOc3cc(CN4CCCCC4)ccc32)cc1` yielded a microsomal CLint [2] of 128 µL/min/mg.
With `O=C(C[C@@H]1C(=O)Nc2ccccc2N1S(=O)(=O)c1ccc(Cl)c(Cl)c1)N[C@@H]1CCOc2cc(CN3CCCCC3)ccc21` the microsomal CLint [2] was 389 µL/min/mg.
In the case of `CC(C)NCc1ccc2c(c1)OCC[C@H]2NC(=O)C[C@@H]1C(=O)Nc2ccccc2N1S(=O)(=O)c1ccc(Cl)c(Cl)c1`, the Ki (B1 bradykinin receptor [3]) is reported as 0.7 nM, the IC50 (B1 bradykinin receptor [1]) is reported as 0.86 nM and the microsomal CLint [2] is reported as 156 µL/min/mg.
`NCc1ccc2c(c1)OCC[C@H]2NC(=O)C[C@@H]1C(=O)Nc2ccccc2N1S(=O)(=O)c1ccc(Cl)c(Cl)c1` showed a microsomal CLint [2] of 127 µL/min/mg.
In the case of `O=C(C[C@@H]1C(=O)Nc2ccccc2N1S(=O)(=O)c1ccc(Cl)c(Cl)c1)N[C@@H]1CCOc2cc(CO)ccc21`, the microsomal CLint [2] is reported as 264 µL/min/mg.
`O=Cc1ccc2c(c1)OCC[C@H]2NC(=O)C[C@@H]1C(=O)Nc2ccccc2N1S(=O)(=O)c1ccc(Cl)c(Cl)c1` showed a microsomal CLint [2] of 407 µL/min/mg.
In the case of `COc1ccccc1NC(=O)CC1C(=O)Nc2ccccc2N1S(=O)(=O)c1c(C)cc(C)cc1C` (stereo unspecified), the Ki (B1 bradykinin receptor [3]) is reported as 500 nM and the IC50 (B1 bradykinin receptor [1]) is reported as > 40000 nM.
Compound `O=C(C[C@@H]1C(=O)Nc2ccccc2N1S(=O)(=O)c1ccccc1)N[C@@H]1CCOc2cc(CN3CCCCC3)ccc21` has a microsomal CLint [2] of 76 µL/min/mg.
Work on `CNCc1ccc2c(c1)OCC[C@H]2NC(=O)C[C@@H]1C(=O)Nc2ccccc2N1S(=O)(=O)c1ccc(Cl)c(Cl)c1` yielded a microsomal CLint [2] of 107 µL/min/mg.
Compound `CN(C)Cc1ccc2c(c1)OCC[C@H]2NC(=O)C[C@@H]1C(=O)Nc2ccccc2N1S(=O)(=O)c1ccc(Cl)c(Cl)c1` has a microsomal CLint [2] of 208 µL/min/mg.
With `CC(C)(C)NCc1ccc2c(c1)OCC[C@H]2NC(=O)C[C@@H]1C(=O)Nc2ccccc2N1S(=O)(=O)c1ccc(Cl)c(Cl)c1` the Ki (B1 bradykinin receptor [3]) was 1.1 nM, the IC50 (B1 bradykinin receptor [1]) was 1.7 nM and the microsomal CLint [2] was 174 µL/min/mg.
In the case of `CC(C)(C)NCc1ccc2c(c1)OCC[C@H]2NC(=O)C[C@@H]1C(=O)Nc2ccccc2N1S(=O)(=O)c1ccccc1`, the Ki (B1 bradykinin receptor [3]) is reported as 1.8 nM, the IC50 (B1 bradykinin receptor [1]) is reported as 0.37 nM and the microsomal CLint [2] is reported as 26 µL/min/mg.

— ChEMBL document CHEMBL1156605, “Discovery of dihydroquinoxalinone acetamides containing bicyclic amines as potent Bradykinin B1 receptor antagonists” (Bioorg Med Chem Lett, 2008)
